What is called inhibition is the drop in the measured response relative to a control, in per cent.

Experimental findings from ChEMBL document CHEMBL3627608, “Crystal structures of human RIP2 kinase catalytic domain complexed with ATP-competitive inhibitors: Foundations for understanding inhibitor selectivity” (Bioorg Med Chem, 2015) are described below.

The target in test [1] is CDK1/Cyclin A (Homo sapiens) (UniProt P06493+P20248). Nature of the test: Inhibition of CDK1/cyclin A (unknown origin) at 10 uM after 120 mins P33 radiolabeled kinase activity assay. It is filed as protein-complex assay.
Test [2] deals with Aurora kinase B (Homo sapiens) (UniProt Q96GD4). Nature of the test: Inhibition of Aurora B (unknown origin) at 10 uM after 120 mins P33 radiolabeled kinase activity assay.
The target in test [3] is Ribosomal protein S6 kinase alpha-5 (Homo sapiens) (UniProt O75582). Nature of the test: Inhibition of MSK1 (unknown origin) at 10 uM after 120 mins P33 radiolabeled kinase activity assay.
Test [4] has as its target Serine/threonine-protein kinase PLK2 (Homo sapiens) (UniProt Q9NYY3). Nature of the test: Inhibition of PLK2 (unknown origin) at 10 uM after 120 mins P33 radiolabeled kinase activity assay.
For test [5], the target named is T1, Receptor-interacting serine/threonine-protein kinase 1 (Homo sapiens) (UniProt Q13546).
T1 sequence (whole entry): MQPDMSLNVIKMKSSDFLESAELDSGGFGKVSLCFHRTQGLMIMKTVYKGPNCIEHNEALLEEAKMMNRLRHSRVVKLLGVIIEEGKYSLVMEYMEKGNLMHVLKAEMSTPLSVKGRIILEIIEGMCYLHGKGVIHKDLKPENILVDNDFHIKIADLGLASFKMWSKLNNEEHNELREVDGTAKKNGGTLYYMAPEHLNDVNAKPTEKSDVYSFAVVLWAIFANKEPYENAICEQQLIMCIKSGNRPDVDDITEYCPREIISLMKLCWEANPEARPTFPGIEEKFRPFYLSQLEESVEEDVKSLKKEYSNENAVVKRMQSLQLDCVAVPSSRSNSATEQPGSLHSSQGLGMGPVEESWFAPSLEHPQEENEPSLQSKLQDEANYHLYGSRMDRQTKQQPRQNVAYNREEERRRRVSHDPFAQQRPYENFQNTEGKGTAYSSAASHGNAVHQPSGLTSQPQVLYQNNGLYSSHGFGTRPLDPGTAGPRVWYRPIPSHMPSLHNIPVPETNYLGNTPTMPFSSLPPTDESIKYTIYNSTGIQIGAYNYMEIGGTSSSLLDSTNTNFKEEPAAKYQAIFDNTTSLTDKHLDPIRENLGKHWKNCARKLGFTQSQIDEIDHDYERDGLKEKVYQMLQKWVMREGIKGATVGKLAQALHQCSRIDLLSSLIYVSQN
Nature of the test: Inhibition of RIP (unknown origin) at 10 uM after 120 mins P33 radiolabeled kinase activity assay.

The target of test [6] is Serine/threonine-protein kinase OSR1 (Homo sapiens) (UniProt O95747). The test is described as follows: Inhibition of OSR1 (unknown origin) at 10 uM after 120 mins P33 radiolabeled kinase activity assay.
Test [7] concerns the target T2, Serine/threonine-protein kinase Nek9 (Homo sapiens) (UniProt Q8TD19).
T2 sequence (whole entry): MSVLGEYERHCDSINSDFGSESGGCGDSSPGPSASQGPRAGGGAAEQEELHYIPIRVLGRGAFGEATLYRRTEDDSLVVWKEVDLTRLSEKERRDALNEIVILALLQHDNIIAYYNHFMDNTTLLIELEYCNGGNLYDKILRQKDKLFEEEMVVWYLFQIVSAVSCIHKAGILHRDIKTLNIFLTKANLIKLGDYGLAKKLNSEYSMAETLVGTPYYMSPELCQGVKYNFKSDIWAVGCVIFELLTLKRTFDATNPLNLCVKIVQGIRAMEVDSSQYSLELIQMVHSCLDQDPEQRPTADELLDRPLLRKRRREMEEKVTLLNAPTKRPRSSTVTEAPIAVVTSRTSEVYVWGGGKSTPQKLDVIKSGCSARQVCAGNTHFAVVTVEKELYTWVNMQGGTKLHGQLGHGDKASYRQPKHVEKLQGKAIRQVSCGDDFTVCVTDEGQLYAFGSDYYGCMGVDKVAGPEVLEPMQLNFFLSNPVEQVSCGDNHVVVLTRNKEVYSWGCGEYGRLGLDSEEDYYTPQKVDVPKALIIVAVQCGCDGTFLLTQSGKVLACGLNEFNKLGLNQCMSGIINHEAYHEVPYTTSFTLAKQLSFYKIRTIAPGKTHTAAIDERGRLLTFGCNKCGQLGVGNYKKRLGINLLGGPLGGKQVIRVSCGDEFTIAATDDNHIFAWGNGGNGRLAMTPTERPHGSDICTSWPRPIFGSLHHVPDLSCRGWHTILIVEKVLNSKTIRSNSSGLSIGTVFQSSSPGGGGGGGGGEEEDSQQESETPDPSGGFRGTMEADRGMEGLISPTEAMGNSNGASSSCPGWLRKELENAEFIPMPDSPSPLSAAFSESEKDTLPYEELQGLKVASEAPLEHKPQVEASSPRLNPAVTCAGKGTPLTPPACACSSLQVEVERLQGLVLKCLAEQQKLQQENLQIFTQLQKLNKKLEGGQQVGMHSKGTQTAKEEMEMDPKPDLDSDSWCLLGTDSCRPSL
Nature of the test: Inhibition of NEK9 (unknown origin) at 10 uM after 120 mins P33 radiolabeled kinase activity assay.

Test [8] deals with RAC-beta serine/threonine-protein kinase (Homo sapiens) (UniProt P31751). The test is described as follows: Inhibition of AKT2 (unknown origin) at 10 uM after 120 mins P33 radiolabeled kinase activity assay.
The target in test [9] is Dual specificity protein kinase CLK3 (Homo sapiens) (UniProt P49761). Nature of the test: Inhibition of CLK3 (unknown origin) at 10 uM after 120 mins P33 radiolabeled kinase activity assay.
Test [10] concerns the target Glycogen synthase kinase-3 beta (Homo sapiens) (UniProt P49841). Nature of the test: Inhibition of GSK3beta (unknown origin) at 10 uM after 120 mins P33 radiolabeled kinase activity assay.
Test [11] concerns the target Serine/threonine-protein kinase N1 (Homo sapiens) (UniProt Q16512). Nature of the test: Inhibition of PKN1 (unknown origin) at 10 uM after 120 mins P33 radiolabeled kinase activity assay.
In test [12] the target is Dual specificity tyrosine-phosphorylation-regulated kinase 1A (Homo sapiens) (UniProt Q13627). Nature of the test: Inhibition of DYRK1 (unknown origin) at 10 uM after 120 mins P33 radiolabeled kinase activity assay.

Chain of Ribosomal protein S6 kinase alpha-5 (Homo sapiens) (O75582 whole entry, looked up): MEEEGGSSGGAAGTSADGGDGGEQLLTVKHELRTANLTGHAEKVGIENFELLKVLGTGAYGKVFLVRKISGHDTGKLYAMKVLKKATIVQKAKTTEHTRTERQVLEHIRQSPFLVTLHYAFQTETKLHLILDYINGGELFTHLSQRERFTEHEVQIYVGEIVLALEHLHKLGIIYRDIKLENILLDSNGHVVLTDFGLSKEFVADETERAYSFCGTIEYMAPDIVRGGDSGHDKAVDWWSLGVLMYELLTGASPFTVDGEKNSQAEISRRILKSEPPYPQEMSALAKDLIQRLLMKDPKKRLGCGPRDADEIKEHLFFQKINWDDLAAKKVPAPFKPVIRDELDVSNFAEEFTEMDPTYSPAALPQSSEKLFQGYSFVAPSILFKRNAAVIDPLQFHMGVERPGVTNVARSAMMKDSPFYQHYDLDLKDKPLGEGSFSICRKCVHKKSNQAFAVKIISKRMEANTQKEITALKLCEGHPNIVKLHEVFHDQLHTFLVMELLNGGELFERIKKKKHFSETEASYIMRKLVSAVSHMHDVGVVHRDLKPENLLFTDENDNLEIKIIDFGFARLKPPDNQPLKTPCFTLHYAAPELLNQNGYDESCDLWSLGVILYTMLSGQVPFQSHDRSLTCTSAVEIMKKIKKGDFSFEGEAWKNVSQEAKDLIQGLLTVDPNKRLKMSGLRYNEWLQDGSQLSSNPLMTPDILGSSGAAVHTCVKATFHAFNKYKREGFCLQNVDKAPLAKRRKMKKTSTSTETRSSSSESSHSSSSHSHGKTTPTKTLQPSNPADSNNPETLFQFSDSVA
Chain of Glycogen synthase kinase-3 beta (Homo sapiens) (P49841 whole entry, looked up): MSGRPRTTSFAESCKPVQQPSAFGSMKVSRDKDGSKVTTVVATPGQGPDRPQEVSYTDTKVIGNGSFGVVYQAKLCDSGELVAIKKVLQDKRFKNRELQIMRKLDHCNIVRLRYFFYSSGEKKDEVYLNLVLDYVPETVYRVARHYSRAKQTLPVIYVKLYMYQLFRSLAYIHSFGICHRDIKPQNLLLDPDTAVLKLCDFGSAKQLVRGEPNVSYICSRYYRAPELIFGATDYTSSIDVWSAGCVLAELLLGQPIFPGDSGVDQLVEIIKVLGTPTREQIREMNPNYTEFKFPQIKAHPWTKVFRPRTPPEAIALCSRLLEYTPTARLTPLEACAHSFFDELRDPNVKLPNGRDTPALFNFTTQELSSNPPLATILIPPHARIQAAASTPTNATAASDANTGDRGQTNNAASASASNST
Chain of Serine/threonine-protein kinase OSR1 (Homo sapiens) (O95747 2-527 limits assumed): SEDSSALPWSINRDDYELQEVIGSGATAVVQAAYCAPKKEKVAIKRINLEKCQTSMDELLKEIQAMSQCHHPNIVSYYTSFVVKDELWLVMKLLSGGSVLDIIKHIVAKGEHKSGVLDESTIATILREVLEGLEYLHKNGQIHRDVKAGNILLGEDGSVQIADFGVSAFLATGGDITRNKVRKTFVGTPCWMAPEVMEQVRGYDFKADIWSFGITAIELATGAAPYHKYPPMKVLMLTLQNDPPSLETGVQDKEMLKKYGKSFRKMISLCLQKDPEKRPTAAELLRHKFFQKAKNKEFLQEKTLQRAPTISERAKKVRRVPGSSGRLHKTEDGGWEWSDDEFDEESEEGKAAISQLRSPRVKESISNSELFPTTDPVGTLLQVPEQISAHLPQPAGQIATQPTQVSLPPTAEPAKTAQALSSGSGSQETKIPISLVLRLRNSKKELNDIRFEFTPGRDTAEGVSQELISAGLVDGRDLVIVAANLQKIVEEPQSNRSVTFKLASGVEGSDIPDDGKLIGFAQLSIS
Chain of Aurora kinase B (Homo sapiens) (Q96GD4 whole entry): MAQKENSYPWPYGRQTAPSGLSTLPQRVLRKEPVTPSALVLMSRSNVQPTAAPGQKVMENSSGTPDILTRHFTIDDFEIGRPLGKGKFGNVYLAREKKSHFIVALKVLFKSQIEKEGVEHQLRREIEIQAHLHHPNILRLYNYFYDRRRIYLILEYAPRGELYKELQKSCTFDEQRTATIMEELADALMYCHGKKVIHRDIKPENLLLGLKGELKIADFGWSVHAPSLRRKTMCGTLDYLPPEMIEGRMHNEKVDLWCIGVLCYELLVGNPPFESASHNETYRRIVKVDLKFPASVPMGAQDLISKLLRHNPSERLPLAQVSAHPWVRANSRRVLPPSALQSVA
Chain of Serine/threonine-protein kinase N1 (Homo sapiens) (Q16512 2-942 limits assumed): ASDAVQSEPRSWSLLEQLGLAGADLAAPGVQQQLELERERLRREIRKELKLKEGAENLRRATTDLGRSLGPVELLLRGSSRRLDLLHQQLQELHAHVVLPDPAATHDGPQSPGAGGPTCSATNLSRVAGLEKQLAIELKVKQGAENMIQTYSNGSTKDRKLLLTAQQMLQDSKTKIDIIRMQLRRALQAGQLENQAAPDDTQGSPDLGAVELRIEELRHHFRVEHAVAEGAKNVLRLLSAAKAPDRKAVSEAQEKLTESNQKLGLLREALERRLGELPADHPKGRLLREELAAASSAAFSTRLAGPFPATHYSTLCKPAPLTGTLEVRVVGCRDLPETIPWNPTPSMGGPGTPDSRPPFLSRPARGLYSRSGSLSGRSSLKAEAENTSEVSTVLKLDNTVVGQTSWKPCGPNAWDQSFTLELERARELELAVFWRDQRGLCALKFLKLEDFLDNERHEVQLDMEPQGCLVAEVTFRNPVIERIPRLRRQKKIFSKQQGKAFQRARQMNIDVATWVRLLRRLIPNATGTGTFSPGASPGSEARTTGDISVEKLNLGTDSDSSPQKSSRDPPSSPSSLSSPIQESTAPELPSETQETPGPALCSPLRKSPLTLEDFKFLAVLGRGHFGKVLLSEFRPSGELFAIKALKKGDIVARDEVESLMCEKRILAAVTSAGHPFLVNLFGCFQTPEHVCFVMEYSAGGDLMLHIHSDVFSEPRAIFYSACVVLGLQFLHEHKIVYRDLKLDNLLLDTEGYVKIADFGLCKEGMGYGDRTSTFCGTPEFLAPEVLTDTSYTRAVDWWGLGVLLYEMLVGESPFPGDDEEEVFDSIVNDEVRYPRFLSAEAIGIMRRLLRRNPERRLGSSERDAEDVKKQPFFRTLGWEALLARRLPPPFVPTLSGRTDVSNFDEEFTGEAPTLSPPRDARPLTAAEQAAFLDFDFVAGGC
Chain of Dual specificity protein kinase CLK3 (Homo sapiens) (P49761 whole entry, looked up): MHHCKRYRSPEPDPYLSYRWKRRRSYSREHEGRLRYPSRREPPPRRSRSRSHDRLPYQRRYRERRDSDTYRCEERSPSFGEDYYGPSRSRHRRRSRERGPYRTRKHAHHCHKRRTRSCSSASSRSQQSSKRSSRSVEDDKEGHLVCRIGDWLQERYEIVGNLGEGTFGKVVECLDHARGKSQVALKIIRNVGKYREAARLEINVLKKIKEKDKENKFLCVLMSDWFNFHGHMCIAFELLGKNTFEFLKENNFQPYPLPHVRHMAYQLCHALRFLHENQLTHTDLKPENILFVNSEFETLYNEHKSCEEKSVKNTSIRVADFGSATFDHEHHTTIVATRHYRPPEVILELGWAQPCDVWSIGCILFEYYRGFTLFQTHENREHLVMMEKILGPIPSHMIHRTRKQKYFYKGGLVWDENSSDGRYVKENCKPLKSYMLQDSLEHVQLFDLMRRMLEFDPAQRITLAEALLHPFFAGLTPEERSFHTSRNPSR
Chain of RAC-beta serine/threonine-protein kinase (Homo sapiens) (P31751 whole entry): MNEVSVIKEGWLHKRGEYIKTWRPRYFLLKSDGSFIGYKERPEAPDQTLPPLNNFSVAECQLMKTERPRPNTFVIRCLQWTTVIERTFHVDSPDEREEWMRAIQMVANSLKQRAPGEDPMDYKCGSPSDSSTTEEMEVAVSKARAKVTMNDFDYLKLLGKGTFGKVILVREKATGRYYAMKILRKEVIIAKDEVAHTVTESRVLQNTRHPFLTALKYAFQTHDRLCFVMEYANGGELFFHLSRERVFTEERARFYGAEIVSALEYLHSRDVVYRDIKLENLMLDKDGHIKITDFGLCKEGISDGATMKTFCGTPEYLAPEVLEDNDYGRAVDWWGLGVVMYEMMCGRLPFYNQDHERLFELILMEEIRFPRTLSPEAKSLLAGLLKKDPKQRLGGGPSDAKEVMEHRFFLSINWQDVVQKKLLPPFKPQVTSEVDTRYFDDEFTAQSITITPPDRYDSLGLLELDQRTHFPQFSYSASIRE
Chain of Serine/threonine-protein kinase PLK2 (Homo sapiens) (Q9NYY3 whole entry, looked up): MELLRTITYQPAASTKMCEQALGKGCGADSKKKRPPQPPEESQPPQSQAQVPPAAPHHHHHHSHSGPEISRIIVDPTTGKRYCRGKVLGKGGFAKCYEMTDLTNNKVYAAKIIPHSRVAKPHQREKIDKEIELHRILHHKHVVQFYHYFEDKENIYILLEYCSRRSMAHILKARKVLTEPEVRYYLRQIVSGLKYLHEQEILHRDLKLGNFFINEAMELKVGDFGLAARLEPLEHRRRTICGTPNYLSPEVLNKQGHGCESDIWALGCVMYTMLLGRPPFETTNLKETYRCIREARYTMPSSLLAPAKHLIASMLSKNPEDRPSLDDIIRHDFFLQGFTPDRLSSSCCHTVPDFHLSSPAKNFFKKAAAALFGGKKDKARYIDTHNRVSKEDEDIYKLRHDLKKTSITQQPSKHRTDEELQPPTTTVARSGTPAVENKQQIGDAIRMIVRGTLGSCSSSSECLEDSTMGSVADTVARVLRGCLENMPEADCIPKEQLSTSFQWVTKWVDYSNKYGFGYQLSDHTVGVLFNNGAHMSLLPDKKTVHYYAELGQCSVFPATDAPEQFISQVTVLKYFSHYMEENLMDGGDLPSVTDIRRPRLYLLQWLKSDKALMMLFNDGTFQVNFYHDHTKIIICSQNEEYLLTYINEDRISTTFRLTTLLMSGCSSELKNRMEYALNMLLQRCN

Regarding `COCCNC(=O)c1ccc2c(c1)nc(-c1cnc(-c3ccc(Cl)cc3)[nH]1)n2CCOC`, the inhibition in test [1] was -6.11%; in test [2] it was 6.36%; in test [3], 7.07%; in test [4], 1.52%; in test [5] it was 33.1%; in [6], 3.1%. Besides, the inhibition in test [7] is -6.23%; in test [8], 18.9%; in test [9], 5.68%; in [10] it was 16.9%; in test [11], 10.6%; in [12], 9.38%.
On to `CC(C)(C)c1cc(NC(=O)Nc2ccc(Oc3ccncc3)cc2)no1`, for which the inhibition came to 7.46% in test [1]; 49.2% in test [2]; 49.5% in test [3]; 2.47% in test [4]; 53.2% in test [5]; 22.6% in test [6]. Further, the inhibition was 20.9% in [7]; 20.6% in test [8]; 9.12% in test [9]; 34.9% in test [10]; 25.1% in [11]; 8.89% in [12].
As for `CS(=O)(=O)c1cccc(Nc2nccc(-c3sc(N4CCOCC4)nc3-c3cccc(NS(=O)(=O)c4c(F)cccc4F)c3)n2)c1`, the inhibition in test [1] is 34.2%; in test [2], 82.1%; in test [3] it was 5.17%; in test [4] it was 7.04%; in test [5], 54.4%; in test [6], 10.1%. Also, the inhibition in test [7] was 100%; in [8], 21.6%; in test [9], 36.7%; in test [10], 98.9%; in [11], 5.55%; in test [12] it was 31.6%.
